From ChEMBL document CHEMBL1201862, “PubChem BioAssay data set” (2004)
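Five compound concentrations were applied to cells in 96-well plates for 48 hours; endpoints were derived by simple linear interpolation of the resulting dose-response curve. GI50 = concentration required for 50% inhibition of growth.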 Calls of active or inactive are those of the source. Rule as the data show it: active = GI50 up to about 1.1 µM and inactive = higher.

Tests used:
Assay in all cases: inhibition of tumour cell growth, NCI panel, 48 h
[1] = test system: HL-60
[2] = test system: M14
[3] = test system: EKVX
[4] = test system: Malme-3M
[5] = test system: LOX IMVI
[6] = test system: SF-539
[7] = test system: SF-268
[8] = test system: SK-MEL-5
[9] = test system: SK-MEL-2
[10] = test system: NCI-H522
[11] = test system: COLO 205
[12] = test system: HCC 2998
[13] = test system: OVCAR-8
[14] = test system: U-251
[15] = test system: OVCAR-5
[16] = test system: DU-145
[17] = test system: Hs-578T
[18] = test system: MDA-MB-231
[19] = test system: NCI/ADR-RES

Compound	GI50 [1]	GI50 [2]	GI50 [3]	GI50 [4]	GI50 [5]	GI50 [6]	GI50 [7]	GI50 [8]	GI50 [9]	GI50 [10]	GI50 [11]	GI50 [12]	GI50 [13]	GI50 [14]	GI50 [15]	GI50 [16]	GI50 [17]	GI50 [18]	GI50 [19]
O=c1[c-](-c2ccccc2)[se]c(-c2ccccc2)[n+]1-c1ccccc1	1.53 µM (inactive)	4.99 µM (inactive)	13.5 µM (inactive)	15.5 µM (inactive)	13.3 µM (inactive)	1.48 µM (inactive)	5.55 µM (inactive)	13 µM (inactive)	6.55 µM (inactive)	2.91 µM (inactive)	15.5 µM (inactive)	6.35 µM (inactive)	3.8 µM (inactive)						
CC(=O)Nc1ccc(Cl)c(Cl)c1	> 10 µM (inactive)	40.4 µM (inactive)	> 100 µM (inactive)	> 100 µM (inactive)	> 100 µM (inactive)	> 100 µM (inactive)	> 100 µM (inactive)			> 100 µM (inactive)	> 100 µM (inactive)	> 100 µM (inactive)	> 100 µM (inactive)	> 100 µM (inactive)					
Cc1cc2c(cc1C)[n+]([O-])c(C(=O)C/C(=N/NC(=O)CC#N)C(=O)Nc1ccccc1C(F)(F)F)c(C)[n+]2[O-]	24.3 µM (inactive)	44.2 µM (inactive)	53.1 µM (inactive)	3.56 µM (inactive)	53.8 µM (inactive)	50.2 µM (inactive)	39.9 µM (inactive)		39.5 µM (inactive)	18.8 µM (inactive)	46.1 µM (inactive)	65.5 µM (inactive)	50.8 µM (inactive)	49.5 µM (inactive)	62.2 µM (inactive)				
O=C1C=C(Nc2ccc(Br)cc2)c2ccccc2C1=O	4.51 µM (inactive)	14.9 µM (inactive)	18.5 µM (inactive)	15.1 µM (inactive)		16 µM (inactive)	13.5 µM (inactive)		15.5 µM (inactive)	11.3 µM (inactive)	17 µM (inactive)	15 µM (inactive)	12.5 µM (inactive)	4 µM (inactive)	20.8 µM (inactive)				
O=C(O)/C(=C/c1ccccc1[N+](=O)[O-])c1ccccc1	> 100 µM (inactive)	> 100 µM (inactive)	> 100 µM (inactive)		> 100 µM (inactive)	> 100 µM (inactive)	> 100 µM (inactive)	> 100 µM (inactive)	> 100 µM (inactive)	> 100 µM (inactive)	> 100 µM (inactive)	> 100 µM (inactive)	> 100 µM (inactive)	> 100 µM (inactive)	> 100 µM (inactive)				
O=C(OC1C(Oc2ccccc2COC(=O)C2(O)C=CCCC2=O)OC(CO)C(O)C1O)c1ccccc1 (stereo not drawn)	23.6 µM (inactive)	35 µM (inactive)		18 µM (inactive)	23.6 µM (inactive)	29.6 µM (inactive)	13.2 µM (inactive)	1.28 µM (inactive)	65.8 µM (inactive)	17.7 µM (inactive)	23.3 µM (inactive)		36.7 µM (inactive)	20.8 µM (inactive)	91.2 µM (inactive)	0.953 µM (active)	13.5 µM (inactive)	35.5 µM (inactive)	34.8 µM (inactive)
O=C(Cn1c2c(c3ccccc31)CCCC2)NC1CCCCC1	0.405 µM (active)	> 100 µM (inactive)	> 100 µM (inactive)	> 100 µM (inactive)	68.5 µM (inactive)	> 100 µM (inactive)	77.3 µM (inactive)	> 100 µM (inactive)	> 100 µM (inactive)		> 100 µM (inactive)	> 100 µM (inactive)	> 100 µM (inactive)		46.8 µM (inactive)		55 µM (inactive)		> 100 µM (inactive)
NC1=NN(c2ccccc2)C(=O)C1/C(=N\NC(=O)c1cc2ccccc2cc1O)C(=O)Nc1ccc(Cl)c(Cl)c1 (stereo not drawn)	5.13 µM (inactive)	19.6 µM (inactive)	14.4 µM (inactive)	33 µM (inactive)	24.5 µM (inactive)	30.9 µM (inactive)	22.9 µM (inactive)	29.5 µM (inactive)	55.7 µM (inactive)	16.5 µM (inactive)	18.9 µM (inactive)	43 µM (inactive)	17.3 µM (inactive)	33 µM (inactive)	44.6 µM (inactive)				
COC(=O)C1=C(c2ccc3c(c2)OCO3)O[C@H](c2ccc3c(c2)OCO3)[C@H]1COC(C)=O	21.8 µM (inactive)	32.6 µM (inactive)	59 µM (inactive)	53.2 µM (inactive)	48.4 µM (inactive)	61.2 µM (inactive)	87.5 µM (inactive)	24.5 µM (inactive)	63 µM (inactive)		15.3 µM (inactive)	35.7 µM (inactive)	45.8 µM (inactive)	53 µM (inactive)	39.6 µM (inactive)				
CCCCCCCCCc1cc(=O)c2c(O)cccc2o1	25.2 µM (inactive)	39.4 µM (inactive)	51.8 µM (inactive)	19.3 µM (inactive)	22.8 µM (inactive)	> 100 µM (inactive)	31.8 µM (inactive)	21 µM (inactive)	23.2 µM (inactive)	34.9 µM (inactive)	> 100 µM (inactive)	65 µM (inactive)	38.7 µM (inactive)	48.1 µM (inactive)	38.8 µM (inactive)				
C[N+](C)(C)CC(=O)N/N=C/c1oc(-c2cccc([N+](=O)[O-])c2)c(-c2cccc([N+](=O)[O-])c2)c1[N+](=O)[O-]	42.3 µM (inactive)	> 100 µM (inactive)	> 100 µM (inactive)	> 100 µM (inactive)		> 100 µM (inactive)	> 100 µM (inactive)	72.3 µM (inactive)	> 100 µM (inactive)	50.7 µM (inactive)	> 100 µM (inactive)	> 100 µM (inactive)	70.8 µM (inactive)		> 100 µM (inactive)				
CCOC(=O)Nc1cc2nnc(-c3ccccc3)nc2c(N)n1	17.7 µM (inactive)	4.06 µM (inactive)	43.7 µM (inactive)	4.8 µM (inactive)	14.7 µM (inactive)	18.4 µM (inactive)	29.2 µM (inactive)	2.23 µM (inactive)	11.4 µM (inactive)	> 10 µM (inactive)	2.73 µM (inactive)	15.8 µM (inactive)	23.6 µM (inactive)	30.5 µM (inactive)	23.1 µM (inactive)				
COc1cc(C2C(Cl)C(=O)N2NC(=O)c2ccc(N)cc2)cc(Br)c1O (stereo not drawn)	8.75 µM (inactive)	15.5 µM (inactive)	13.2 µM (inactive)	14.5 µM (inactive)	2.75 µM (inactive)	19.5 µM (inactive)	4.19 µM (inactive)	17.9 µM (inactive)	17 µM (inactive)	1.92 µM (inactive)	18.7 µM (inactive)	12 µM (inactive)	28.4 µM (inactive)	3.31 µM (inactive)	19.4 µM (inactive)				
CC(=O)Nc1ccc(-c2nnc(SCC(=O)Nc3ccccc3Cl)o2)cc1	> 100 µM (inactive)	> 100 µM (inactive)		> 100 µM (inactive)	> 100 µM (inactive)	> 100 µM (inactive)	> 100 µM (inactive)	> 100 µM (inactive)	> 100 µM (inactive)	> 100 µM (inactive)	> 100 µM (inactive)	> 100 µM (inactive)	> 100 µM (inactive)	> 100 µM (inactive)	> 100 µM (inactive)				
O=C(Nc1ccc(Cl)cc1Cl)OC(Cn1cncn1)c1ccc(Cl)cc1Cl (stereo not drawn)	44 µM (inactive)	17.9 µM (inactive)	16 µM (inactive)	15 µM (inactive)	16.3 µM (inactive)	17.9 µM (inactive)	17.1 µM (inactive)	16.7 µM (inactive)	19.2 µM (inactive)	16.3 µM (inactive)	17.2 µM (inactive)		17.3 µM (inactive)	16.1 µM (inactive)					
CC(C)(C)c1cc(CCC(=O)Nc2ccc(Cl)cc2)nc(NC#N)n1	> 100 µM (inactive)	> 100 µM (inactive)	> 100 µM (inactive)		> 100 µM (inactive)	> 100 µM (inactive)	> 100 µM (inactive)		> 100 µM (inactive)		> 100 µM (inactive)		> 100 µM (inactive)	> 100 µM (inactive)	> 100 µM (inactive)				
CCP(C)(C)=O		> 100 µM (inactive)	> 100 µM (inactive)	> 100 µM (inactive)	> 100 µM (inactive)	> 100 µM (inactive)	> 100 µM (inactive)	> 100 µM (inactive)	> 100 µM (inactive)		> 100 µM (inactive)	> 100 µM (inactive)	> 100 µM (inactive)	> 100 µM (inactive)	> 100 µM (inactive)				
NNc1ncc2c(n1)-c1ccccc1OC2	19.7 µM (inactive)	52.4 µM (inactive)	49.4 µM (inactive)	51.2 µM (inactive)	58.9 µM (inactive)	46.3 µM (inactive)	41.6 µM (inactive)	76.9 µM (inactive)	> 100 µM (inactive)	46.5 µM (inactive)	59.3 µM (inactive)		44.4 µM (inactive)	54.2 µM (inactive)	> 100 µM (inactive)	61 µM (inactive)	> 100 µM (inactive)	> 100 µM (inactive)	28 µM (inactive)
CC(C)N(C(=O)C12C3C4C1C1C2C3C41C(=O)O)C(C)C (stereo not drawn)	> 100 µM (inactive)	> 100 µM (inactive)	> 100 µM (inactive)	> 100 µM (inactive)	> 100 µM (inactive)	> 100 µM (inactive)	> 100 µM (inactive)	> 100 µM (inactive)	> 100 µM (inactive)	> 100 µM (inactive)	> 100 µM (inactive)	> 100 µM (inactive)	> 100 µM (inactive)		> 100 µM (inactive)				
